Results published in patent publication US20190185518A9, “WARHEAD-CONTAINING PEPTIDOMIMETIC MACROCYCLES AS MODULATORS OF BFL-1” (AILERON Therapeutics, Inc., priority 2017, published 2019).
Starred links: 1 amine or outer side, 2 acyl side, 3 side chain; linkers in the order of their positions; H or OH if unused. Positions of bridges follow the written chain, without caps; N, C: chain ends. Non-standard residues stand in square brackets, D forms with d. Residues, ends and D or L forms follow the SMILES beside them. 2Nal = N[C@@H](Cc1ccc2ccccc2c1)C(=O)O; X1 = CC(C)CCC[C@H](N[*:1])C(=O)[*:2]; R8 = C=CCCCCCC[C@@](C)(N)C(=O)O; S5 = C=CCCC[C@](C)(N)C(=O)O

What follows are molecules tested against Mcl-1 (Homo sapiens, UniProt Q07820) (assay: Ki determination for Mcl-1 (BCL-2 family binding spectrum)). Conditions: read-out: Ki MCL-1.
Excerpt: To assess the binding and affinity of compounds that antagonize the interaction between a peptide and an acceptor protein, a fluorescence polarization assay (FPA) utilizing a fluoresceinated peptidomimetic macrocycle derived from a peptidomimetic precursor sequence is used, for example. The FPA technique measures the molecular orientation and mobility using polarized light and fluorescent tracer. […] A compound that antagonizes the interaction between the fluoresceinated peptidomimetic macrocycle and an acceptor protein will be detected in a competitive binding FPA experiment.
Antagonist binding activity is measured, for example, by fluorescence polarization on a luminescence spectrophotometer (e.g. Perkin-Elmer LS50B). Kd values may be determined by nonlinear regression analysis using, for example, Graphpad Prism software (GraphPad Software, Inc., San Diego, Calif.).

Mcl-1, sequence (Q07820 whole entry, species assumed): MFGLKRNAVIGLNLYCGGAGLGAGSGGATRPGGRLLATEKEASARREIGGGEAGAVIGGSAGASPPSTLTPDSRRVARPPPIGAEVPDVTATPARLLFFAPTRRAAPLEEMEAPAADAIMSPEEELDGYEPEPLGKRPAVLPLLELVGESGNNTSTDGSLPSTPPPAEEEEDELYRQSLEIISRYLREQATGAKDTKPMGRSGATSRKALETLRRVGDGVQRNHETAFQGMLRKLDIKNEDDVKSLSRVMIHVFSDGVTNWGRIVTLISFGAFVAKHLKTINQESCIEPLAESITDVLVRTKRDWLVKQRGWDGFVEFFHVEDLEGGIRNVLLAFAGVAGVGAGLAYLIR

Structure (SMILES) | Ki [nM]
CC[C@H](C)[C@H](NC(C)=O)C(=O)N[C@@H](Cc1ccc2ccccc2c1)C(=O)N[C@H](C(=O)N[C@@H](C)C(=O)N[C@@H](C)C(=O)N[C@@H](C)C(=O)N[C@@H](CC(C)C)C(=O)N[C@@H](CCCNC(=N)N)C(=O)N[C@]1(C)CCCCCCC=CCCC[C@@](C)(C(=O)N[C@@H](Cc2ccc(O)cc2)C(=O)N[C@@H](Cc2ccc(O)cc2)C(=O)N[C@@H](C)C(N)=O)NC(=O)[C@H](CC(N)=O)NC(=O)[C@H](Cc2ccccc2)NC(=O)[C@H](C)NC(=O)[C@H](CC(=O)O)NC(=O)CNC(=O)[C@H]([C@@H](C)CC)NC1=O)[C@@H](C)CC [compound 1732] (Ac-I[2Nal]IAAALR[R8]IGDAFN[S5]YYA-NH2; staple 9-16) | 13.7
CC[C@H](C)[C@H](NC(C)=O)C(=O)N[C@@H](C)C(=O)N[C@H](C(=O)N[C@@H](C)C(=O)N[C@@H](CCC(N)=O)C(=O)N[C@@H](C)C(=O)N[C@@H](CC(C)C)C(=O)N[C@@H](CCCNC(=N)N)C(=O)N[C@]1(C)CCCCCCC=CCCC[C@@](C)(C(=O)N[C@@H](Cc2ccc(O)cc2)C(=O)N[C@@H](Cc2ccc(O)cc2)C(=O)N[C@@H](C)C(N)=O)NC(=O)[C@H](CC(N)=O)NC(=O)[C@H](Cc2ccccc2)NC(=O)[C@H](C)NC(=O)[C@H](CC(=O)O)NC(=O)CNC(=O)[C@H]([C@@H](C)CC)NC1=O)[C@@H](C)CC [compound 1648] (Ac-IAIAQALR[R8]IGDAFN[S5]YYA-NH2; staple 9-16) | 19.7
CC[C@H](C)[C@H](NC(C)=O)C(=O)N[C@@H](Cc1c[nH]c2ccccc12)C(=O)N[C@@H](CCCC(C)C)C(=O)N[C@@H](C)C(=O)N[C@@H](CCC(N)=O)C(=O)N[C@@H](C)C(=O)N[C@@H](CC(C)C)C(=O)N[C@@H](CCCNC(=N)N)C(=O)N[C@]1(C)CCCCCCC=CCCC[C@@](C)(C(=O)N[C@@H](Cc2ccc(O)cc2)C(=O)N[C@@H](Cc2ccc(O)cc2)C(=O)N[C@@H](C)C(N)=O)NC(=O)[C@H](CC(N)=O)NC(=O)[C@H](Cc2ccccc2)NC(=O)[C@H](C)NC(=O)[C@H](CC(=O)O)NC(=O)CNC(=O)[C@H]([C@@H](C)CC)NC1=O [compound 1678] (Ac-IW[X1]AQALR[R8]IGDAFN[S5]YYA-NH2; staple 9-16) | 21.2
CC[C@H](C)[C@H](NC(C)=O)C(=O)N[C@@H](Cc1c[nH]c2ccccc12)C(=O)N[C@H](C(=O)N[C@@H](C)C(=O)N[C@@H](C)C(=O)N[C@@H](C)C(=O)N[C@@H](CC(C)C)C(=O)N[C@@H](CCCNC(=N)N)C(=O)N[C@]1(C)CCCCCCC=CCCC[C@@](C)(C(=O)N[C@@H](Cc2ccc(O)cc2)C(=O)N[C@@H](Cc2ccc(O)cc2)C(=O)N[C@@H](CC(=O)O)C(N)=O)NC(=O)[C@H](CC(N)=O)NC(=O)[C@H](Cc2ccccc2)NC(=O)[C@H](C)NC(=O)[C@H](CC(=O)O)NC(=O)CNC(=O)[C@H]([C@@H](C)CC)NC1=O)[C@@H](C)CC [compound 1760] (Ac-IWIAAALR[R8]IGDAFN[S5]YYD-NH2; staple 9-16) | 2.2
CC[C@H](C)[C@H](NC(C)=O)C(=O)N[C@@H](Cc1c[nH]c2ccccc12)C(=O)N[C@H](C(=O)N[C@@H](CC(C)C)C(=O)N[C@@H](C)C(=O)N[C@@H](C)C(=O)N[C@@H](CC(C)C)C(=O)N[C@@H](CCCNC(=N)N)C(=O)N[C@]1(C)CCCCCCC=CCCC[C@@](C)(C(=O)N[C@@H](Cc2ccc(O)cc2)C(=O)N[C@@H](Cc2ccc(O)cc2)C(=O)N[C@@H](C)C(N)=O)NC(=O)[C@H](CC(N)=O)NC(=O)[C@H](Cc2ccccc2)NC(=O)[C@H](C)NC(=O)[C@H](CC(=O)O)NC(=O)CNC(=O)[C@H]([C@@H](C)CC)NC1=O)[C@@H](C)CC [compound 1734] (Ac-IWILAALR[R8]IGDAFN[S5]YYA-NH2; staple 9-16) | 19.7
CC[C@H](C)[C@H](NC(C)=O)C(=O)N[C@@H](Cc1c[nH]c2ccccc12)C(=O)N[C@H](C(=O)N[C@@H](C)C(=O)N[C@@H](C)C(=O)N[C@@H](C)C(=O)N[C@@H](CC(C)C)C(=O)N[C@@H](CCCNC(=N)N)C(=O)N[C@]1(C)CCCCCCC=CCCC[C@@](C)(C(=O)N[C@@H](Cc2ccc(O)cc2)C(=O)N[C@@H](Cc2ccc(O)cc2)C(=O)N[C@@H](CCCCN)C(N)=O)NC(=O)[C@H](CC(N)=O)NC(=O)[C@H](Cc2ccccc2)NC(=O)[C@H](C)NC(=O)[C@H](CC(=O)O)NC(=O)CNC(=O)[C@H]([C@@H](C)CC)NC1=O)[C@@H](C)CC [compound 1766] (Ac-IWIAAALR[R8]IGDAFN[S5]YYK-NH2; staple 9-16) | 6.6
CC[C@H](C)[C@H](NC(C)=O)C(=O)N[C@@H](Cc1c[nH]cn1)C(=O)N[C@H](C(=O)N[C@@H](C)C(=O)N[C@@H](C)C(=O)N[C@@H](C)C(=O)N[C@@H](CC(C)C)C(=O)N[C@@H](CCCNC(=N)N)C(=O)N[C@]1(C)CCCCCCC=CCCC[C@@](C)(C(=O)N[C@@H](Cc2ccc(O)cc2)C(=O)N[C@@H](Cc2ccc(O)cc2)C(=O)N[C@@H](C)C(N)=O)NC(=O)[C@H](CC(N)=O)NC(=O)[C@H](Cc2ccccc2)NC(=O)[C@H](C)NC(=O)[C@H](CC(=O)O)NC(=O)CNC(=O)[C@H]([C@@H](C)CC)NC1=O)[C@@H](C)CC [compound 1727] (Ac-IHIAAALR[R8]IGDAFN[S5]YYA-NH2; staple 9-16) | 6.6
CC[C@H](C)[C@H](NC(C)=O)C(=O)N[C@@H](Cc1c[nH]c2ccccc12)C(=O)N[C@H](C(=O)N[C@@H](CO)C(=O)N[C@@H](C)C(=O)N[C@@H](C)C(=O)N[C@@H](CC(C)C)C(=O)N[C@@H](CCCNC(=N)N)C(=O)N[C@]1(C)CCCCCCC=CCCC[C@@](C)(C(=O)N[C@@H](Cc2ccc(O)cc2)C(=O)N[C@@H](Cc2ccc(O)cc2)C(=O)N[C@@H](C)C(N)=O)NC(=O)[C@H](CC(N)=O)NC(=O)[C@H](Cc2ccccc2)NC(=O)[C@H](C)NC(=O)[C@H](CC(=O)O)NC(=O)CNC(=O)[C@H]([C@@H](C)CC)NC1=O)[C@@H](C)CC [compound 1733] (Ac-IWISAALR[R8]IGDAFN[S5]YYA-NH2; staple 9-16) | 3.6

More lines, in order of falling Ki, values ahead:

Ki [nM] | Structure (SMILES)
11.6 | CC[C@H](C)[C@H](NC(C)=O)C(=O)N[C@@H](Cc1c[nH]c2ccccc12)C(=O)N[C@H](C(=O)N[C@@H](C)C(=O)N[C@@H](CCC(N)=O)C(=O)N[C@@H](C)C(=O)N[C@@H](CC(C)C)C(=O)N[C@@H](CCCNC(=N)N)C(=O)N[C@]1(C)CCCCCCC=CCCCC2(CCCC=CCCC[C@](C)(C(=O)N[C@@H](C)C(N)=O)NC(=O)[C@H](C)NC(=O)[C@H](Cc3ccc(O)cc3)NC(=O)[C@H](Cc3ccc(O)cc3)NC2=O)NC(=O)[C@H](CC(N)=O)NC(=O)[C@H](Cc2ccccc2)NC(=O)[C@H](CCC(=O)O)NC(=O)[C@H](CC(=O)O)NC(=O)CNC(=O)[C@H]([C@@H](C)CC)NC1=O)[C@@H](C)CC (stereo partly shown) [compound 1784]
10.6 | CC[C@H](C)[C@H](NC(C)=O)C(=O)N[C@@H](Cc1c[nH]c2ccccc12)C(=O)N[C@H](C(=O)N[C@@H](C)C(=O)N[C@@H](CCC(N)=O)C(=O)N[C@@H](C)C(=O)N[C@@H](CC(C)C)C(=O)N[C@@H](CCCNC(=N)N)C(=O)N[C@]1(C)CCCCCCC=CCCC[C@@](C)(C(=O)N[C@@H](Cc2ccc(O)cc2)C(=O)N[C@@H](Cc2ccc(O)cc2)C(=O)N[C@@H](C)C(=O)N[C@@H](CCCNC(=N)N)C(=O)N[C@@H](CCCNC(=N)N)C(N)=O)NC(=O)[C@H](CC(N)=O)NC(=O)[C@H](Cc2ccccc2)NC(=O)[C@H](CCC(=O)O)NC(=O)[C@H](CC(=O)O)NC(=O)CNC(=O)[C@H]([C@@H](C)CC)NC1=O)[C@@H](C)CC [compound 1628] (Ac-IWIAQALR[R8]IGDEFN[S5]YYARR-NH2; staple 9-16)
10.2 | CC[C@H](C)[C@H](NC(C)=O)C(=O)N[C@@H](CC(C)C)C(=O)N[C@H](C(=O)N[C@@H](C)C(=O)N[C@@H](C)C(=O)N[C@@H](C)C(=O)N[C@@H](CC(C)C)C(=O)N[C@@H](CCCNC(=N)N)C(=O)N[C@]1(C)CCCCCCC=CCCC[C@@](C)(C(=O)N[C@@H](Cc2ccc(O)cc2)C(=O)N[C@@H](Cc2ccc(O)cc2)C(=O)N[C@@H](C)C(N)=O)NC(=O)[C@H](CC(N)=O)NC(=O)[C@H](Cc2ccccc2)NC(=O)[C@H](C)NC(=O)[C@H](CC(=O)O)NC(=O)CNC(=O)[C@H]([C@@H](C)CC)NC1=O)[C@@H](C)CC [compound 1730] (Ac-ILIAAALR[R8]IGDAFN[S5]YYA-NH2; staple 9-16)
10.2 | CC[C@H](C)[C@H](NC(C)=O)C(=O)N[C@@H](Cc1ccccc1)C(=O)N[C@H](C(=O)N[C@@H](C)C(=O)N[C@@H](C)C(=O)N[C@@H](C)C(=O)N[C@@H](CC(C)C)C(=O)N[C@@H](CCCNC(=N)N)C(=O)N[C@]1(C)CCCCCCC=CCCC[C@@](C)(C(=O)N[C@@H](Cc2ccc(O)cc2)C(=O)N[C@@H](Cc2ccc(O)cc2)C(=O)N[C@@H](C)C(N)=O)NC(=O)[C@H](CC(N)=O)NC(=O)[C@H](Cc2ccccc2)NC(=O)[C@H](C)NC(=O)[C@H](CC(=O)O)NC(=O)CNC(=O)[C@H]([C@@H](C)CC)NC1=O)[C@@H](C)CC [compound 1731] (Ac-IFIAAALR[R8]IGDAFN[S5]YYA-NH2; staple 9-16)
8 | CC[C@H](C)[C@H](NC(C)=O)C(=O)N[C@@H](Cc1c[nH]c2ccccc12)C(=O)N[C@H](C(=O)N[C@@H](C)C(=O)N[C@@H](C)C(=O)N[C@@H](C)C(=O)N[C@@H](CC(C)C)C(=O)N[C@@H](CCCNC(=N)N)C(=O)N[C@]1(C)CCCCCCC=CCCC[C@@](C)(C(=O)N[C@@H](Cc2ccc(O)cc2)C(=O)N[C@@H](Cc2ccc(O)cc2)C(=O)N[C@@H](C)C(N)=O)NC(=O)[C@H](CO)NC(=O)[C@H](Cc2ccccc2)NC(=O)[C@H](C)NC(=O)[C@H](CC(=O)O)NC(=O)CNC(=O)[C@H]([C@@H](C)CC)NC1=O)[C@@H](C)CC [compound 1751] (Ac-IWIAAALR[R8]IGDAFS[S5]YYA-NH2; staple 9-16)
